Test results taken from patent US20240262803A1, “COMPOUNDS, COMPOSITIONS AND METHODS OF TREATING DISORDERS” (Chungdu Anticancer Bioscience Ltd, priority 2021, published 2024).
Like-named read-outs stand apart in the source and are kept apart here.

Columns and labels:
RPEMYC^H2B-GFP cells [1] = assay: Mechanism-informed phenotypic screening assay (mitotic arrest, polyploidy; GE IN-Cell Analyzer 2000); assay type: cell-based; settings: 20 nM to 20 μM, 24, 48 or 72 hours, read-out: Min. Effective conc. for polyploidy (≥5%)
Outline: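 RPEMYC^H2B-GFP cells expressing Histone 2B-EGFP were treated with compounds at 20 nM to 20 μM. Mitotic arrest and DNA content were imaged at 24, 48 or 72 h. Minimal effective concentrations eliciting polyploidy are given as letter bins.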

[2] = system: lung cancer cell line NCI-H23; assay: MTT assay of cellular proliferation, NCI-H23; assay type: cell-based; settings: Homo sapiens, read-out: EC50: Concentration that inhibits 50% of proliferation
Outline: (§1)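 MTT viability assay in DMEM with 5% FBS. Cells seeded to 20–30% confluence were exposed to compound from 1 nM to 10 μM, then MTT was added for 3–4 h and formazan was read at 570 nm. EC50 is the concentration giving 50% inhibition of proliferation.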

[3] = system: lung cancer cell line A549; assay: MTT assay of cellular proliferation, A549; assay type: cell-based; settings: Homo sapiens, read-out: EC50: Concentration that inhibits 50% of proliferation
Outline: as §1

[4] = system: colon cancer cell line HCT116; assay: MTT assay of cellular proliferation, HCT116; assay type: cell-based; settings: Homo sapiens, HCT-116, read-out: EC50: Concentration that inhibits 50% of proliferation
Outline: as §1

[5] = system: colon cancer cell line SW460; assay: MTT assay of cellular proliferation, SW460; assay type: cell-based; settings: Homo sapiens, SW480; read-out: EC50: Concentration that inhibits 50% of proliferation
Outline: as §1

[6] = system: breast cancer cell line MDA-MB-231; assay: MTT assay of cellular proliferation, MDA-MB-231; assay type: cell-based; settings: Homo sapiens, read-out: EC50: Concentration that inhibits 50% of proliferation
Outline: as §1

[7] = system: gastric cancer cell line NCI-N87; assay: MTT assay of cellular proliferation, NCI-N87; assay type: cell-based; settings: Homo sapiens, read-out: EC50: Concentration that inhibits 50% of proliferation
Outline: as §1

[8] = system: cervical cancer cell line Hela; assay: MTT assay of cellular proliferation, Hela; assay type: cell-based; settings: Homo sapiens, read-out: EC50: Concentration that inhibits 50% of proliferation
Outline: as §1

[9] = system: liver cancer cell line T2 HCC; assay: MTT assay of cellular proliferation, T2 HCC; assay type: cell-based; settings: Mus musculus, read-out: EC50: Concentration that inhibits 50% of proliferation
Outline: as §1

[10] = system: human lung adenocarcinoma cell line NCI-H23; assay: Xenograft assay, NCI-H23; assay type: in vivo; settings: NCI-H23 subcutaneous xenograft, Nu/Nu mice, oral gavage twice a day for 9 days, FIG. 3
Procedure: (§2) Xenografts were initiated in immunocompromised (Nu/Nu) mice with the human lung adenocarcinoma cell line NCI-H23 (FIG. 3) and the human colon cancer cell line HCT116 (FIG. 4). Five million cells were injected subcutaneously into each mouse and treatment was initiated when the average tumor volumes reached 150 mm3 (n=5/groups). Tumor-bearing mice were randomized into different groups to receive either vehicle or indicated compounds. The compounds were administered through oral gavage twice a day for 9 days. Day 0 on the x-axis indicates the day that treatment was initiated. For these experiments, all compounds were first dissolved in DMSO and then diluted 1:10 into a mixture containing 50% PEG300 and 49% PBS, 1% Tween 80, pH2.2. 100 ul of drug solution was administered with each dose. Tumor volumes were determined once every three days and are calculated from digital caliper raw data by using the formula: Volume (mm3)=(L×W^2)/2. The value W (Width) is the smaller of two perpendicular tumor axes and the value L (Length) is the larger of two perpendicular axes. Mean tumor volume growth curves and means are calculated for each treatment group.

[11] = system: human colon cancer cell line HCT116; assay: Xenograft assay, HCT116; assay type: in vivo; settings: HCT116 subcutaneous xenograft, Nu/Nu mice, oral gavage twice a day for 9 days, FIG. 4
Procedure: as §2

[12] = system: lung cancer cell line NCI-H23; assay: Minimal effective concentration that elicits polyploidy, NCI-H23; assay type: cell-based; settings: Homo sapiens, read-out: MECP: Minimal effective concentration that elicits polyploidy
[13] = system: lung cancer cell line A549; assay: Minimal effective concentration that elicits polyploidy, A549; assay type: cell-based; settings: Homo sapiens, read-out: MECP: Minimal effective concentration that elicits polyploidy
[14] = system: colon cancer cell line HCT116; assay: Minimal effective concentration that elicits polyploidy, HCT116; assay type: cell-based; settings: Homo sapiens, HCT-116, read-out: MECP: Minimal effective concentration that elicits polyploidy
SW480 = assay: Minimal effective concentration that elicits polyploidy, SW480; assay type: cell-based; settings: Homo sapiens, read-out: MECP: Minimal effective concentration that elicits polyploidy
[15] = system: breast cancer cell line MDA-MB-231; assay: Minimal effective concentration that elicits polyploidy, MDA-MB-231; assay type: cell-based; settings: Homo sapiens, read-out: MECP: Minimal effective concentration that elicits polyploidy
[16] = system: cervical cancer cell line Hela; assay: Minimal effective concentration that elicits polyploidy, Hela; assay type: cell-based; settings: Homo sapiens, read-out: MECP: Minimal effective concentration that elicits polyploidy
[17] = system: gastric cancer cell line NCI-N87; assay: Minimal effective concentration that elicits polyploidy, NCI-N87; assay type: cell-based; settings: Homo sapiens, read-out: MECP: Minimal effective concentration that elicits polyploidy
[18] = system: liver cancer cell line T2 HCC; assay: Minimal effective concentration that elicits polyploidy, T2 HCC; assay type: cell-based; settings: Mus musculus, read-out: MECP: Minimal effective concentration that elicits polyploidy
RPEMYC^H2B-GFP cells [19] = assay: Mechanism-informed phenotypic screening assay (mitotic arrest, polyploidy; GE IN-Cell Analyzer 2000); assay type: cell-based; settings: 20 nM to 20 μM, 24, 48 or 72 hours, read-out: Mitotic Arrest (≥5%)

COc1cc(OC)cc(Oc2ncccc2-c2ccnc(OC)c2)c1 [Compound 32, 2-(3,5-dimethoxyphenoxy)-2′-methoxy-3,4′-bipyridine]
minimal effective concentration (RPEMYC^H2B-GFP cells [1]): 1 µM
EC50 [2]: 1 to 1000 nM
EC50 [3]: 1 to 1000 nM
EC50 [4]: 1 to 1000 nM
EC50 [5]: 1 to 1000 nM
EC50 [6]: 1 to 1000 nM
EC50 [7]: 1 to 1000 nM
EC50 [8]: 1 to 1000 nM
EC50 [9]: 1 to 1000 nM
tumor growth (tumor volume) [10]: suppressing the tumor growth
tumor growth (tumor volume) [11]: suppressing the tumor growth
minimal effective concentration [12]: 0.001 to 1 µM
minimal effective concentration [13]: 0.001 to 1 µM
minimal effective concentration [14]: 0.001 to 1 µM
minimal effective concentration (SW480): 0.001 to 1 µM
minimal effective concentration [15]: 0.001 to 1 µM
minimal effective concentration [16]: 0.001 to 1 µM
minimal effective concentration [17]: 0.001 to 1 µM
minimal effective concentration [18]: 0.001 to 1 µM
minimal effective concentration (RPEMYC^H2B-GFP cells [19]): 1 µM
